The nature of data set [1]: Metabolic stability in rat hepatocytes. Type of data set: in vitro ADME. The note with it: 1 μM compound, male rat hepatocytes. The method, then: (§1) Rat hepatocytes in male gender and human liver microsome were obtained from commercial vendors (e.g., BioreclamationIVT) and stored at −150° C. prior to use.
For metabolic stability assay with rat heptatocytes, vials of cryopreserved hepatocytes or microsome were removed from storage, ensured that vials remain at cryogenic temperatures. 1 μM of each test compound (in Acetonitrile; 0.01% DMSO) was incubated with 250 μL of hepatocyte cells (1×10^6 cells/ml) in a 96 deep well plate. […] 40 μL of supernatant was diluted to 200 μL with pure water and analyzed using LC-MS/MS.
In vitro hepatocyte clearance was estimated based on determination of elimination half-life (T1/2) of compounds disappearance from their initial concentrations. Peak area ratios of each compound (test or control) to IS was calculated. Ln (% Control) versus Incubation Time (min) curve was plotted, and the slope of a linear fitting line was calculated. Drug elimination rate constant k (min−1), T1/2 (min), and in vitro intrinsic clearance CLint (μL/min/E6) was calculated according to the following equations: k=−slope T1/2=0.693/k CLint=k/Chep Where Chep (cells×μL^−1) is the cell concentration in the incubation system.

Another data set addresses T1, JAK3 (Homo sapiens, UniProt P52333).
T1 construct: purchased Carna Biosciences
T1 sequence (P52333 1-1124): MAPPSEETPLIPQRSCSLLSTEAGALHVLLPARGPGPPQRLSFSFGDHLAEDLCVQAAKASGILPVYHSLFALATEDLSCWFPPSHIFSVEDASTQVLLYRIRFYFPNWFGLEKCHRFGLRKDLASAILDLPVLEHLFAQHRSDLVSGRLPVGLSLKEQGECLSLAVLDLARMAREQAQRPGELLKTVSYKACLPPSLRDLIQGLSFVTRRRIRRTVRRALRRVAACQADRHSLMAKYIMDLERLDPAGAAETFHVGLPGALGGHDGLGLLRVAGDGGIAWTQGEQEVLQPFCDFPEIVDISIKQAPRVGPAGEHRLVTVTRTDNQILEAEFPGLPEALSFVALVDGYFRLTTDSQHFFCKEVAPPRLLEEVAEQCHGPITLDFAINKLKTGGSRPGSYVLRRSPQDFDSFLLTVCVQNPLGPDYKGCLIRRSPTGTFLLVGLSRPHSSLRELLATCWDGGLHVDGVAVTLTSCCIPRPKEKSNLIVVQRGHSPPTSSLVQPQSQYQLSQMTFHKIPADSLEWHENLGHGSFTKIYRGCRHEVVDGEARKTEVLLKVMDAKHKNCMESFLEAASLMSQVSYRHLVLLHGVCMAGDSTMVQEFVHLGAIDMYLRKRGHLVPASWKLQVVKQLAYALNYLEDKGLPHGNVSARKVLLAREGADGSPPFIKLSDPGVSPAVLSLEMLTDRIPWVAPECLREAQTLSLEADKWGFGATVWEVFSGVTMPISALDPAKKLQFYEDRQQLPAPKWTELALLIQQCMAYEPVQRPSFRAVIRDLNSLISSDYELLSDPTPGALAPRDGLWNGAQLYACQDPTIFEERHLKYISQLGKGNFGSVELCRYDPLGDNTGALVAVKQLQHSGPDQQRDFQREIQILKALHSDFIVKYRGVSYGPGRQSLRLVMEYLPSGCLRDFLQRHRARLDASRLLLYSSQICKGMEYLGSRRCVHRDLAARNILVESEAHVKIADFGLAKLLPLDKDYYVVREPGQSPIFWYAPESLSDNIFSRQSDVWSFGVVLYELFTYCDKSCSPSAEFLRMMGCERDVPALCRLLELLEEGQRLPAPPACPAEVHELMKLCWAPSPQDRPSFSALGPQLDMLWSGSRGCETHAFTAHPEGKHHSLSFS
As to the kind of experiment: Lance Ultra Kinase Assay, recombinant JAK3. Type of data set: biochemical. The conditions noted are these: 5 mM ATP. Summed up: (§2)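 Each recombinant kinase preincubated with or without compound 15 min at room temperature, then reaction started with 5 mM ATP and substrate peptide for 60 min. Stopped with EDTA-containing detection mix; TR-FRET read at ex 320 nm, 665/615 nm emission ratio taken as kinase activity.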

In another data set the target is T2, JAK1 (Homo sapiens, UniProt P23458).
T2 construct: purchased Carna Biosciences
Briefly: Lance Ultra Kinase Assay, recombinant JAK1. Type of data set: biochemical. The note with it: 5 mM ATP. Put shortly:
as §2

A further data set concerns the target T3, TYK2 (Homo sapiens, UniProt P29597).
T3 construct: purchased Carna Biosciences
As to the kind of experiment: Lance Ultra Kinase Assay, recombinant TYK2. The conditions noted are these: 5 mM ATP. The class given is biochemical. Put shortly: as §2

Another data set addresses T4, JAK2 (Homo sapiens, UniProt O60674).
T4 construct: purchased Carna Biosciences
As to the kind of experiment: Lance Ultra Kinase Assay, recombinant JAK2. Type of data set: biochemical. The conditions noted are these: 5 mM ATP. Summed up:
as §2

A short description of data set [2]: Metabolic stability in human liver microsome. Type of data set: in vitro ADME. The note with it: 1 mg/mL microsomes, NADPH; for microsomal CLint at 1 μM: human, pooled human liver microsomes, pH 7.4, 1 μM compound. The method, then: as §1
For metabolic stability assay with human liver microsome, 1 μM of each test compound was incubated with 1 mg/mL of microsomes (Pooled HLM with 20 mg/ml protein cone) at 37° C. in 250 μL of buffer (100 mM phosphate buffer, pH-7.4) containing 1 mM NADPH solution. […] was quenched with 5 volumes chilled acetonitrile at different time points 0, 0.5, 5, 10, 15, 20 and 30 min in a fresh 96 well plate. The quench plate was centrifuged at 4000 rpm for 15 min. 40 μL of supernatant was diluted to 200 μL with pure water and analyzed using LC-MS/MS. […]
On the technique in general: Liver microsomes are vesicles of endoplasmic reticulum, rich in cytochrome P450 enzymes.

Another data set has as its system phosphorylation of STAT6. Briefly: Cellular p-STAT6 assay, IL-13 stimulated THP-1 cells, flow cytometry. The note with it: IL-13 10 ng/ml, read-out: pSTAT6 IC50. Type of data set: cell-based. Summed up: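 THP-1 cells (2×10^5/well, RPMI1640 + 10% FBS) preincubated 60 min at room temperature with compound (1 μM to 0.3 nM), then stimulated 30 min with IL-13 at 10 ng/ml. Fixed, methanol-permeabilized cells stained with PE anti-pSTAT6 and read by flow cytometry; IC50 from dose-response curves.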
On the technique in general: Flow cytometry measures light scatter and fluorescence of single cells or particles in a stream.

Setting [3] is: Homo sapiens, THP-1, THP-1 cells.

Where two headings read alike, the source gives them in different places.

Experimental findings from patent publication US12606544B2, “JAK1 selective kinase inhibitor” (DIZAL (JIANGSU) PHARMACEUTICAL CO., LTD., priority 2019, dated 2026) are described below.

T3 sequence (P29597 whole entry): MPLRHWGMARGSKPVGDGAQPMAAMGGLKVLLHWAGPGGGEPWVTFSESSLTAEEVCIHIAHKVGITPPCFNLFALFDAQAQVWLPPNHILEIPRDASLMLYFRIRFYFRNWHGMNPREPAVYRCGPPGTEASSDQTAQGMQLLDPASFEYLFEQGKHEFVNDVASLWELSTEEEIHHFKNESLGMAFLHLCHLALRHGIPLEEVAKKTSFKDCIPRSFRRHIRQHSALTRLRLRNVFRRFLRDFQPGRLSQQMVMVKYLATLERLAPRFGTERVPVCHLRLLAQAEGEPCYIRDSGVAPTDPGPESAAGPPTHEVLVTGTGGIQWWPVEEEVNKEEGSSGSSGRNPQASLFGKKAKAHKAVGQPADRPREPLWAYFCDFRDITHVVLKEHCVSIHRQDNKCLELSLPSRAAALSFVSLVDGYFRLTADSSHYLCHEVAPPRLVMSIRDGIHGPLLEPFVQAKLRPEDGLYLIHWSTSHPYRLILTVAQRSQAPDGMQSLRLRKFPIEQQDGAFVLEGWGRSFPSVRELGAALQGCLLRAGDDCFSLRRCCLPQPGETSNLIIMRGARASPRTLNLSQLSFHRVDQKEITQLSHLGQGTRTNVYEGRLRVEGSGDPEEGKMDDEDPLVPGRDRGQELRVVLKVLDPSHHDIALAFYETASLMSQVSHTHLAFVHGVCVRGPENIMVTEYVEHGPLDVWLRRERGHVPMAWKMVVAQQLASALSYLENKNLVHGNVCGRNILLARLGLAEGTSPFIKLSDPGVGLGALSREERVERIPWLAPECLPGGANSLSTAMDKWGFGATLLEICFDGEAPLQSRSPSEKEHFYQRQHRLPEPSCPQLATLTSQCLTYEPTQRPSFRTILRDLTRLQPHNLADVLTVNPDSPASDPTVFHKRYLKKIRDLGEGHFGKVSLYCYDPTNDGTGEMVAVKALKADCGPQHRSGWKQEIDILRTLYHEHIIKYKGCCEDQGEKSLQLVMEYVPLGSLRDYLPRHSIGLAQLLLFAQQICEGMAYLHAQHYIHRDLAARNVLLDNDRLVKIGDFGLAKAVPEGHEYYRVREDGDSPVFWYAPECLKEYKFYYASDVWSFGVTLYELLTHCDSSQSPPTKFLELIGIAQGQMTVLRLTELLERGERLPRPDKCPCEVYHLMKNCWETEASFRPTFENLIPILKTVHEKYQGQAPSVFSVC
T2 sequence (P23458 whole entry): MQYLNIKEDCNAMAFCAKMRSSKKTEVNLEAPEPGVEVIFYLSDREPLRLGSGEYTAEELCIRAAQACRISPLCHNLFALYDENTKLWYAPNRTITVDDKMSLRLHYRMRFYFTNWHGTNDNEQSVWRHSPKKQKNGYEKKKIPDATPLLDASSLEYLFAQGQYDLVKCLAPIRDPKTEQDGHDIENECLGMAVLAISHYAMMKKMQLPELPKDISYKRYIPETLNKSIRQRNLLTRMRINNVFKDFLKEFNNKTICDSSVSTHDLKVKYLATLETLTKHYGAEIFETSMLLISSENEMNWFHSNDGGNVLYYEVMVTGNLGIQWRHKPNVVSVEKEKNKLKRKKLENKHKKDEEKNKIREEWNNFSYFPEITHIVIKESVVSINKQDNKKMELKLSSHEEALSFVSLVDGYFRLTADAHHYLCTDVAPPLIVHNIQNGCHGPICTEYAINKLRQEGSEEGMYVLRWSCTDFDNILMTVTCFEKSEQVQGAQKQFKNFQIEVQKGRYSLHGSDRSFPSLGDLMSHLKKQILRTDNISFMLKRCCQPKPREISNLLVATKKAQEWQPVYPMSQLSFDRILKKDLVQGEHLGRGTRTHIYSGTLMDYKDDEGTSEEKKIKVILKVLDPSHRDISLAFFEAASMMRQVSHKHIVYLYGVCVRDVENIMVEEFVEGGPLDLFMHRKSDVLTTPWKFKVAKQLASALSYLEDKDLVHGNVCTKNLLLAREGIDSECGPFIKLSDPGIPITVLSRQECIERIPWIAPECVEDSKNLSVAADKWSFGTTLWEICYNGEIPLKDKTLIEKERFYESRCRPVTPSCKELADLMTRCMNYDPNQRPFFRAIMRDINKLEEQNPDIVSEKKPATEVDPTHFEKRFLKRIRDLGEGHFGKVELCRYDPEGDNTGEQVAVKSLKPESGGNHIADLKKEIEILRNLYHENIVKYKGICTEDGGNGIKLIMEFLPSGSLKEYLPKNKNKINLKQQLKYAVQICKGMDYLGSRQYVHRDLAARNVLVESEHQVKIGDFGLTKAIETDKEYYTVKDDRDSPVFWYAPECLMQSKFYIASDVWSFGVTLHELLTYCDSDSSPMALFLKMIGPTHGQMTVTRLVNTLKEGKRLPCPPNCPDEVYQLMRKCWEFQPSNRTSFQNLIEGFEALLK
T4 sequence (O60674 whole entry): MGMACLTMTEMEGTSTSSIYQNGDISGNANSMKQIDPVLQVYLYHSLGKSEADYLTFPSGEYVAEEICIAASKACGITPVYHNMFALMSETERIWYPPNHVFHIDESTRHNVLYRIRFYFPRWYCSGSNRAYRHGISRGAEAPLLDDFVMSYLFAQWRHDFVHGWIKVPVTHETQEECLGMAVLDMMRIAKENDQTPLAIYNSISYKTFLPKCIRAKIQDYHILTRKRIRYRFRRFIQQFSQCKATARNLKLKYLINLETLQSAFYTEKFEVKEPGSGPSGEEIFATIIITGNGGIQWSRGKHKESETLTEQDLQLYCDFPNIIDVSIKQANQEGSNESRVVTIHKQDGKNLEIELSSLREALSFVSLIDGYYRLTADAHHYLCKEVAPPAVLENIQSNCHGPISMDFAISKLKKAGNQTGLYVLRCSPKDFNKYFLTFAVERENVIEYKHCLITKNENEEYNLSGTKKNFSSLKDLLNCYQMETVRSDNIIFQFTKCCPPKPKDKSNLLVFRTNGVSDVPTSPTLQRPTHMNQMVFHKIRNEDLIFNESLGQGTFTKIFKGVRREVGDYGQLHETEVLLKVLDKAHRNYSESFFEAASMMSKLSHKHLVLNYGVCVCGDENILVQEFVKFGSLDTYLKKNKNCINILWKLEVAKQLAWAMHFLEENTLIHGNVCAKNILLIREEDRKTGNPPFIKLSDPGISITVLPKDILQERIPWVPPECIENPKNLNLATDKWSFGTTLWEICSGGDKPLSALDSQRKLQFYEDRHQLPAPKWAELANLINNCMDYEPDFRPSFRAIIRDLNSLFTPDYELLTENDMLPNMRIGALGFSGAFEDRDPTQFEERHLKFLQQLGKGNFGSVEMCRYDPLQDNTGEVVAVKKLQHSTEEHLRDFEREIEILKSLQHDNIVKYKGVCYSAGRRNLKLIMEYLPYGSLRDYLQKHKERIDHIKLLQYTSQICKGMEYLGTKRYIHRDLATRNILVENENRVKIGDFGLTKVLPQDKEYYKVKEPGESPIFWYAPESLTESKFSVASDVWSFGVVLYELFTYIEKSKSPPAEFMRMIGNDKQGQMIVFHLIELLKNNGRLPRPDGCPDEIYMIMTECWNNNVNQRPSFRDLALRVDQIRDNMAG

As a reminder, the IC50 is the concentration at which inhibition is half-maximal. What is called microsomal CLint is the rate of metabolic loss divided by the concentration. `COC[C@H](C(=O)Nc1cccc2c(-c3nc(Nc4cnc(C(=O)OC)c(C)c4)ncc3F)c[nH]c12)N1CCN(C)CC1` [Example 57, methyl (R)-5-((5-fluoro-4-(7-(3-methoxy-2-(4-methylpiperazin-1-yl)propanamido)-1H-indol-3-yl)pyrimidin-2-yl)amino)-3-methylpicolinate]: the “Rat Hepatocyte CLint” value in data set [1] is 24.0 μL/min/10^6 cells. The IC50 at JAK3 was above 10000 nM; on JAK1, 0.16 nM; at TYK2, 922 nM; at JAK2 it was 44 nM; in the data set with phosphorylation of STAT6 (setting [3]), 16 nM. Moreover, in data set [2], the microsomal CLint at 1 μM was above 300 µL/min/mg.
As to `COC[C@H](C(=O)Nc1cccc2c(-c3nc(Nc4ccnc(C(=O)OC)c4)ncc3F)c[nH]c12)N1CCN(C)CC1` [Example 4, Methyl-(R)-4-((5-fluoro-4-(7-(3-methoxy-2-(4-methylpiperazin-1-yl)propanamido)-1H-indol-3-yl)pyrimidin-2-yl)amino)picolinate], in data set [1], the “Rat Hepatocyte CLint” value is above 300 μL/min/10^6 cells. Besides, the IC50 at JAK3 was above 10000 nM; at JAK1 it was 0.26 nM; on TYK2 it was 1830 nM; at JAK2 it was 81 nM; in the data set on phosphorylation of STAT6 (setting [3]), 5.1 nM. Moreover, in data set [2], the microsomal CLint at 1 μM was determined as 14.4 µL/min/mg.
As to `COC[C@H](C(=O)Nc1cccc2c(-c3nc(Nc4cnn(C5CCOC5)c4)ncc3F)c[nH]c12)N1CCN(C)CC1` (single isomer, unassigned; isomer 2) [Example 33], the “Rat Hepatocyte CLint” value in data set [1] was determined as 6.8 μL/min/10^6 cells. Also, the IC50 was above 10000 nM on JAK3; 0.14 nM on JAK1; 2170 nM at TYK2; 110 nM at JAK2; 11.1 nM in the data set with phosphorylation of STAT6 (THP-1 cells). In data set [2] (1 μM compound), the “Human liver microsome CLint” value worked out at 11.1 µL/min/mg.
For the molecule `COC[C@H](C(=O)Nc1cccc2c(-c3nc(Nc4ccc(OCCO)nc4)ncc3F)c[nH]c12)N1CCN(C)CC1` [Example 16, (R)-N-(3-(5-fluoro-2-((6-(2-hydroxyethoxy)pyridin-3-yl)amino)pyrimidin-4-yl)-1H-indol-7-yl)-3-methoxy-2-(4-methylpiperazin-1-yl)propanamide], the “Rat Hepatocyte CLint” value in data set [1] is 42.1 μL/min/10^6 cells. Moreover, the IC50 was above 10000 nM at JAK3; 0.36 nM at JAK1; 2000 nM on TYK2; 138 nM at JAK2; 7.4 nM with phosphorylation of STAT6 (setting [3]). Besides, in data set [2], the intrinsic clearance (microsomal CLint) at 1 μM stood at 3 µL/min/mg.
As to `COC[C@H](C(=O)Nc1cccc2c(-c3nc(Nc4ccnc(CCC(=O)OC)c4)ncc3F)c[nH]c12)N1CCN(C)CC1` [Example 15, methyl (R)-3-(4-((5-fluoro-4-(7-(3-methoxy-2-(4-methylpiperazin-1-yl)propanamido)-1H-indol-3-yl)pyrimidin-2-yl)amino)pyridin-2-yl)propanoate], the “Rat Hepatocyte CLint” value in data set [1] amounted to 68.0 μL/min/10^6 cells. Also, the IC50 on JAK3 is above 10000 nM; on JAK1, 0.19 nM; at TYK2 it was 1440 nM; on JAK2 it was 20 nM; in the data set with phosphorylation of STAT6 (setting [3]) it was 7.3 nM. This molecule also returned a microsomal CLint at 1 μM in data set [2] above 300 µL/min/mg.
In the case of `COC[C@H](C(=O)Nc1cccc2c(-c3nc(Nc4ccc(CO)cn4)ncc3F)c[nH]c12)N1CCN(C)CC1` [Example 59, (R)-N-(3-(5-fluoro-2-((5-(hydroxymethyl)pyridin-2-yl)amino)pyrimidin-4-yl)-1H-indol-7-yl)-3-methoxy-2-(4-methylpiperazin-1-yl)propanamide], in data set [1], the “Rat Hepatocyte CLint” value is reported as above 300 μL/min/10^6 cells. Besides, the IC50 is above 10000 nM at JAK3; 131 nM on JAK1; above 10000 nM on TYK2; 2220 nM at JAK2; 17.4 nM with phosphorylation of STAT6 (setting [3]). The microsomal CLint at 1 μM in data set [2] worked out at 10.7 µL/min/mg.
Consider `COC[C@H](C(=O)Nc1cccc2c(-c3nc(Nc4ccc5c(C)n[nH]c5c4)ncc3F)c[nH]c12)N1CCN(C)CC1` [Example 17, (R)-N-(3-(5-fluoro-2-((3-methyl-1H-indazol-6-yl)amino)pyrimidin-4-yl)-1H-indol-7-yl)-3-methoxy-2-(4-methylpiperazin-1-yl)propanamide], for which the “Rat Hepatocyte CLint” value in data set [1] is 4.5 μL/min/10^6 cells. Further, the IC50 at JAK3 came out at 7740 nM; on JAK1 it was 0.18 nM; at TYK2, 1210 nM; on JAK2, 43 nM; with phosphorylation of STAT6 (setting [3]), 7.6 nM. In data set [2], this molecule came in with a microsomal CLint at 1 μM of 57.2 µL/min/mg.
Consider `COC[C@H](C(=O)Nc1cccc2c(-c3nc(Nc4cnn(-c5ccccc5CO)c4)ncc3F)c[nH]c12)N1CCN(C)CC1` [Example 53, (R)-N-(3-(5-fluoro-2-((1-(2-(hydroxymethyl)phenyl)-1H-pyrazol-4-yl)amino)pyrimidin-4-yl)-1H-indol-7-yl)-3-methoxy-2-(4-methylpiperazin-1-yl)propanamide], for which the “Rat Hepatocyte CLint” value in data set [1] turned out to be 17.4 μL/min/10^6 cells. Also, the IC50 was above 10000 nM on JAK3; 0.22 nM on JAK1; 1660 nM at TYK2; 180 nM on JAK2; 15 nM with phosphorylation of STAT6 (setting [3]). Besides, in data set [2], the microsomal CLint at 1 μM was 27.9 µL/min/mg.
`COC[C@H](C(=O)Nc1cccc2c(-c3nc(Nc4ccc5c(c4)C(=O)OCC5)ncc3F)c[nH]c12)N1CCN(C)CC1` [Example 64, (R)-N-(3-(5-fluoro-2-((1-oxoisochroman-7-yl)amino)pyrimidin-4-yl)-1H-indol-7-yl)-3-methoxy-2-(4-methylpiperazin-1-yl)propanamide]: the “Rat Hepatocyte CLint” value in data set [1] is 4.0 μL/min/10^6 cells. Also, the IC50 on JAK3 is above 10000 nM; at JAK1, 0.14 nM; at TYK2, 512 nM; on JAK2, 22 nM; in the data set on phosphorylation of STAT6 (setting [3]), 18.4 nM. The molecule further yielded a microsomal CLint at 1 μM in data set [2] of 21.9 µL/min/mg.
With `COC[C@H](C(=O)Nc1cccc2c(-c3nc(Nc4ccc5c(c4)NC(=O)C5)ncc3F)c[nH]c12)N1CCN(C)CC1` [Example 37, (R)-N-(3-(5-fluoro-2-((2-oxoindolin-6-yl)amino)pyrimidin-4-yl)-1H-indol-7-yl)-3-methoxy-2-(4-methylpiperazin-1-yl)propanamide], the “Rat Hepatocyte CLint” value in data set [1] is on record as 6.3 μL/min/10^6 cells. In addition, the IC50 at JAK3 stood at 4760 nM; on JAK1, 0.21 nM; at TYK2, 996 nM; at JAK2 it was 68 nM; in the data set on phosphorylation of STAT6 (setting [3]), 11.5 nM. The molecule also showed a microsomal CLint at 1 μM in data set [2] of 11.7 µL/min/mg.
